Assay results published in publication PMC2913121 (Nature chemistry, 2010).

Columns and labels:
SjGST [1] = target: T1, SjGST (Schistosoma japonicum, UniProt P08515); assay: CDNB conjugation assay; format: biochemical; conditions: aniline up to 20 mM
SjGST [2] = target: T1, SjGST; assay: SjGST-templated acylhydrazone DCL, amplification by HPLC; format: binding; conditions: DCL synthesis in the presence of a large excess of the inhibitor

T1 sequence (P08515 whole entry): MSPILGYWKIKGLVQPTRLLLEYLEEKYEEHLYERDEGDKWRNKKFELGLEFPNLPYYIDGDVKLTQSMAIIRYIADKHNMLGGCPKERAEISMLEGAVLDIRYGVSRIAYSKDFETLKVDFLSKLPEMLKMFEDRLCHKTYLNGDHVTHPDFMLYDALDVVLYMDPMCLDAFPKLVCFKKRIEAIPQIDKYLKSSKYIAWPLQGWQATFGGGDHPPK

SMILES	SjGST GSH conjugation activity in the presence of the additive (SjGST [1])	effect on DCL component amplification (SjGST [2])
Nc1ccccc1 [aniline]	retained GSH conjugation activity	–
C=C(CC)C(=O)c1ccc(OCC(=O)O)c(Cl)c1Cl [ethacrynic acid]	–	completely suppressed
